Source: ChEMBL document CHEMBL1201862, “PubChem BioAssay data set” (2004)
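How tested: cells in 96-well plates exposed to compound for 48 hours at five concentrations. Abbreviation: GI50, concentration required for 50% inhibition of growth.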 Activity calls are given as the source filed them. No stated cut-off is given here; in the data, active = GI50 up to about 1.1 µM and inactive = higher.

What was measured:
Assay in all cases: inhibition of tumour cell growth, NCI panel, 48 h
MDA-MB-231 = test system: MDA-MB-231
PC-3 = test system: PC-3
OVCAR-8 = test system: OVCAR-8
ACHN = test system: ACHN
A549 = test system: A549
DU-145 = test system: DU-145
HOP-92 = test system: HOP-92
SK-MEL-28 = test system: SK-MEL-28
NCI-H522 = test system: NCI-H522
UO-31 = test system: UO-31
CCRF-CEM = test system: CCRF-CEM
MDA-MB-435 = test system: MDA-MB-435
HCT-15 = test system: HCT-15
COLO 205 = test system: COLO 205
UACC-257 = test system: UACC-257
SF-268 = test system: SF-268
NCI-H23 = test system: NCI-H23
Malme-3M = test system: Malme-3M
NCI-H460 = test system: NCI-H460
HT-29 = test system: HT-29
T47D = test system: T47D
M14 = test system: M14
SF-539 = test system: SF-539
UACC-62 = test system: UACC-62
NCI/ADR-RES = test system: NCI/ADR-RES
U-251 = test system: U-251
IGROV-1 = test system: IGROV-1
SF-295 = test system: SF-295
OVCAR-5 = test system: OVCAR-5
SNB-75 = test system: SNB-75
SR = test system: SR
SN12C = test system: SN12C
HCT-116 = test system: HCT-116
TK-10 = test system: TK-10
RXF 393 = test system: RXF 393
KM12 = test system: KM12
SK-MEL-2 = test system: SK-MEL-2
786-0 = test system: 786-0
MDA-N = test system: MDA-N
HL-60 = test system: HL-60
OVCAR-3 = test system: OVCAR-3
Hs-578T = test system: Hs-578T
CAKI-1 = test system: CAKI-1
MOLT-4 = test system: MOLT-4
SK-MEL-5 = test system: SK-MEL-5
SW-620 = test system: SW-620
EKVX = test system: EKVX
NCI-H226 = test system: NCI-H226
OVCAR-4 = test system: OVCAR-4
BT-549 = test system: BT-549
RPMI-8226 = test system: RPMI-8226
HCC 2998 = test system: HCC 2998
SNB-19 = test system: SNB-19
A498 = test system: A498
SK-OV-3 = test system: SK-OV-3
K562 = test system: K562
MCF7 = test system: MCF7
LOX IMVI = test system: LOX IMVI
HOP-62 = test system: HOP-62

## NP(=O)(OCC1=CC(=O)c2ccccc2C1=O)N(CCBr)CCBr (stereo unspecified)
MDA-MB-231
  GI50: 11.4 µM (inactive)
PC-3
  GI50: 10.9 µM (inactive)
OVCAR-8
  GI50: 12.1 µM (inactive)
ACHN
  GI50: 1.44 µM (inactive)
A549
  GI50: 4.17 µM (inactive)
DU-145
  GI50: 5.04 µM (inactive)
HOP-92
  GI50: 13.3 µM (inactive)
SK-MEL-28
  GI50: 4.23 µM (inactive)
NCI-H522
  GI50: 2.31 µM (inactive)
UO-31
  GI50: 11.2 µM (inactive)
CCRF-CEM
  GI50: 1.2 µM (inactive)
MDA-MB-435
  GI50: 2.14 µM (inactive)
HCT-15
  GI50: 5.13 µM
COLO 205
  GI50: 2.2 µM (inactive)
UACC-257
  GI50: 1.87 µM (inactive)
SF-268
  GI50: 11.2 µM (inactive)
NCI-H23
  GI50: 3.03 µM (inactive)
Malme-3M
  GI50: 0.979 µM (active)
NCI-H460
  GI50: 1.79 µM (inactive)
HT-29
  GI50: 11.1 µM (inactive)
T47D
  GI50: 3.48 µM (inactive)
M14
  GI50: 2.01 µM (inactive)
SF-539
  GI50: 3.99 µM (inactive)
UACC-62
  GI50: 2.24 µM (inactive)
NCI/ADR-RES
  GI50: 8.49 µM (inactive)
U-251
  GI50: 11.5 µM (inactive)
IGROV-1
  GI50: 12.6 µM (inactive)
SF-295
  GI50: 8.81 µM (inactive)
OVCAR-5
  GI50: 22.3 µM (inactive)
SNB-75
  GI50: 7.26 µM (inactive)
SR
  GI50: 0.399 µM (active)
SN12C
  GI50: 10.6 µM (inactive)
HCT-116
  GI50: 9.55 µM (inactive)
TK-10
  GI50: 17.2 µM (inactive)
RXF 393
  GI50: 7.4 µM (inactive)
KM12
  GI50: 8.65 µM (inactive)
SK-MEL-2
  GI50: 4.26 µM (inactive)
786-0
  GI50: 5.82 µM (inactive)
MDA-N
  GI50: 1.65 µM (inactive)
HL-60
  GI50: 0.863 µM (active)
OVCAR-3
  GI50: 3.02 µM (inactive)
Hs-578T
  GI50: 31.5 µM (inactive)
CAKI-1
  GI50: 0.843 µM (active)
MOLT-4
  GI50: 0.634 µM (active)
SK-MEL-5
  GI50: 1.31 µM (inactive)
SW-620
  GI50: 2.32 µM (inactive)
EKVX
  GI50: 15.3 µM (inactive)
NCI-H226
  GI50: 6.58 µM (inactive)
OVCAR-4
  GI50: 16.4 µM (inactive)
BT-549
  GI50: 2.09 µM (inactive)
RPMI-8226
  GI50: 11.6 µM (inactive)
HCC 2998
  GI50: 16 µM (inactive)
SNB-19
  GI50: 18.3 µM (inactive)
A498
  GI50: 20.8 µM (inactive)
SK-OV-3
  GI50: 14.3 µM (inactive)
K562
  GI50: 3.05 µM (inactive)
MCF7
  GI50: 2.07 µM (inactive)
LOX IMVI
  GI50: 3.96 µM (inactive)

## O=C1CSC2(CC(/C=C/c3ccccc3Br)=NN2c2cccc(S(=O)(=O)O)c2)N1c1nc2ccccc2s1 (stereo unspecified)
MDA-MB-231
  GI50: > 100 µM (inactive)
PC-3
  GI50: > 100 µM (inactive)
OVCAR-8
  GI50: > 100 µM (inactive)
ACHN
  GI50: > 100 µM (inactive)
A549
  GI50: > 100 µM (inactive)
DU-145
  GI50: > 100 µM (inactive)
HOP-92
  GI50: 87.9 µM (inactive)
SK-MEL-28
  GI50: > 100 µM (inactive)
NCI-H522
  GI50: 52 µM (inactive)
UO-31
  GI50: 93.5 µM (inactive)
CCRF-CEM
  GI50: 30.5 µM (inactive)
MDA-MB-435
  GI50: 43.1 µM (inactive)
HCT-15
  GI50: > 100 µM
COLO 205
  GI50: > 100 µM (inactive)
UACC-257
  GI50: > 100 µM (inactive)
SF-268
  GI50: > 100 µM (inactive)
NCI-H23
  GI50: > 100 µM (inactive)
Malme-3M
  GI50: > 100 µM (inactive)
NCI-H460
  GI50: > 100 µM (inactive)
HT-29
  GI50: > 100 µM (inactive)
T47D
  GI50: 27.6 µM (inactive)
M14
  GI50: > 100 µM (inactive)
SF-539
  GI50: > 100 µM (inactive)
UACC-62
  GI50: 51.5 µM (inactive)
NCI/ADR-RES
  GI50: > 100 µM (inactive)
U-251
  GI50: 75.5 µM (inactive)
IGROV-1
  GI50: 55.1 µM (inactive)
OVCAR-5
  GI50: > 100 µM (inactive)
SNB-75
  GI50: > 100 µM (inactive)
SR
  GI50: 33 µM (inactive)
SN12C
  GI50: > 100 µM (inactive)
HCT-116
  GI50: > 100 µM (inactive)
TK-10
  GI50: 45.7 µM (inactive)
RXF 393
  GI50: > 100 µM (inactive)
KM12
  GI50: 98.4 µM (inactive)
SK-MEL-2
  GI50: > 100 µM (inactive)
786-0
  GI50: > 100 µM (inactive)
MDA-N
  GI50: > 100 µM (inactive)
HL-60
  GI50: > 100 µM (inactive)
Hs-578T
  GI50: > 100 µM (inactive)
CAKI-1
  GI50: > 100 µM (inactive)
MOLT-4
  GI50: 52 µM (inactive)
SK-MEL-5
  GI50: 76 µM (inactive)
SW-620
  GI50: > 100 µM (inactive)
EKVX
  GI50: > 100 µM (inactive)
NCI-H226
  GI50: 53.2 µM (inactive)
OVCAR-4
  GI50: 75.9 µM (inactive)
BT-549
  GI50: > 100 µM (inactive)
RPMI-8226
  GI50: 44.8 µM (inactive)
HCC 2998
  GI50: > 100 µM (inactive)
SNB-19
  GI50: > 100 µM (inactive)
A498
  GI50: > 100 µM (inactive)
K562
  GI50: 54.8 µM (inactive)
MCF7
  GI50: 50.4 µM (inactive)
LOX IMVI
  GI50: > 100 µM (inactive)

## c1cc(C[S+]2CCCC2)ccc1C[S+]1CCCC1
MDA-MB-231
  GI50: > 100 µM (inactive)
PC-3
  GI50: > 100 µM (inactive)
OVCAR-8
  GI50: > 100 µM (inactive)
ACHN
  GI50: > 100 µM (inactive)
A549
  GI50: 65.5 µM (inactive)
DU-145
  GI50: > 100 µM (inactive)
HOP-92
  GI50: > 100 µM (inactive)
SK-MEL-28
  GI50: > 100 µM (inactive)
NCI-H522
  GI50: > 100 µM (inactive)
UO-31
  GI50: > 100 µM (inactive)
CCRF-CEM
  GI50: > 100 µM (inactive)
MDA-MB-435
  GI50: > 100 µM (inactive)
HCT-15
  GI50: > 100 µM
COLO 205
  GI50: > 100 µM (inactive)
UACC-257
  GI50: > 100 µM (inactive)
SF-268
  GI50: > 100 µM (inactive)
NCI-H23
  GI50: > 100 µM (inactive)
Malme-3M
  GI50: > 100 µM (inactive)
NCI-H460
  GI50: > 100 µM (inactive)
HT-29
  GI50: > 100 µM (inactive)
T47D
  GI50: > 100 µM (inactive)
HOP-62
  GI50: > 100 µM (inactive)
M14
  GI50: > 100 µM (inactive)
SF-539
  GI50: > 100 µM (inactive)
UACC-62
  GI50: > 100 µM (inactive)
NCI/ADR-RES
  GI50: > 100 µM (inactive)
U-251
  GI50: > 100 µM (inactive)
IGROV-1
  GI50: > 100 µM (inactive)
SF-295
  GI50: > 100 µM (inactive)
OVCAR-5
  GI50: > 100 µM (inactive)
SNB-75
  GI50: 52.1 µM (inactive)
SR
  GI50: > 100 µM (inactive)
SN12C
  GI50: > 100 µM (inactive)
HCT-116
  GI50: > 100 µM (inactive)
TK-10
  GI50: > 100 µM (inactive)
RXF 393
  GI50: > 100 µM (inactive)
KM12
  GI50: > 100 µM (inactive)
786-0
  GI50: > 100 µM (inactive)
MDA-N
  GI50: > 100 µM (inactive)
HL-60
  GI50: > 100 µM (inactive)
OVCAR-3
  GI50: > 100 µM (inactive)
Hs-578T
  GI50: > 100 µM (inactive)
CAKI-1
  GI50: > 100 µM (inactive)
MOLT-4
  GI50: > 100 µM (inactive)
SK-MEL-5
  GI50: > 100 µM (inactive)
SW-620
  GI50: > 100 µM (inactive)
EKVX
  GI50: > 100 µM (inactive)
NCI-H226
  GI50: > 100 µM (inactive)
OVCAR-4
  GI50: > 100 µM (inactive)
BT-549
  GI50: > 100 µM (inactive)
RPMI-8226
  GI50: > 100 µM (inactive)
HCC 2998
  GI50: > 100 µM (inactive)
SNB-19
  GI50: > 100 µM (inactive)
A498
  GI50: 29.2 µM (inactive)
SK-OV-3
  GI50: > 100 µM (inactive)
K562
  GI50: > 100 µM (inactive)
MCF7
  GI50: > 100 µM (inactive)
LOX IMVI
  GI50: > 100 µM (inactive)
